Measured values from US8426406B2, “Glucocorticoid receptor agonist comprising 2,2,4-trimethyl-6-phenyl-1,2-dihydroquinoline derivatives having substituted oxy group” (Santen Pharmaceutical Co., Ltd., priority 2008, dated 2013).

Key:
[1] = system: allergic conjunctivitis model in mice; assay: Inhibitory effect on the vascular hyper-permeability in allergic conjunctivitis model; assay type: in vivo; conditions: Mus musculus, 1% (W/V) test compound suspension instilled to the right eye three times before ovalbumin instillation, dye leakage vs vehicle, mean of 5-6 eyes, read-out: The inhibition ratio of the vascular hyper-permeability (%)
Description: In order to evaluate anti-allergic effect, inhibitory effect on the vascular hyper-permeability in allergic conjunctivitis model in mice was examined. This effect was calculated based on dye leakages of vehicle-treated group (control group) and test compound-treated group.
By adding 0.5% polysorbate 80/saline to the test compound, a 1% (W/V) test compound suspension was prepared.
1) Ovalbumin absorbed on aluminum hydroxide gel was dissolved in saline (20 μg ovalbumin/mL), and male BALE/c mice, 6 weeks old, were actively sensitized to the antigen by intraperitoneal injections of 500 μL of it.
2) On the 6th day from sensitization, sensitized mice were boosted by additional intraperitoneal injections of 500 μL ovalbumin absorbed on aluminum hydroxide gel (20 μg ovalbumin/mL).
3) On the 11th day, 12th day, 13th day, 14th day and 15th day from the first sensitization, allergic conjunctivitis were induced by installations to the right eyes of the mice of […] of 50% glycerol solution containing 15% (W/V) ovalbumin.
4) […] of test compound suspension per eye was instilled to the right eye of the above mice 15 min, 1 hr and 3 hrs before ovalbumin instillation (three times) on the 15th day from sensitization. In vehicle-treated group (control group), the mice were instilled with 0.5% polysorbate 80/saline in substitution for test compound suspension.
5) Just before ovalbumin instillation on the 15th day from sensitization, all animals received a tail intravenous injection of 0.1% Evans blue dye. The right periocular tissues of the mice, which were the leaked parts of dye, were collected 30 min after ovalbumin instillation. The dye was extracted from the tissues with the dye extraction liquid. Then the absorbance of the dye extract was measured. The dye leakage was calculated from the absorbance value, and the inhibition ratio of the vascular hyper-permeability of test compound-treated group was calculated according to calculation equation 1. The inhibition ratio of the vascular hyper-permeability of test compound-treated group(%)=(1−Ax/Ao)×100 (Calculation Equation 1) Ao: Dye leakage in vehicle-treated group (control group) Ax: Dye leakage in test compound-treated group (Test Results and Discussion)

[2] = system: choroidal neovascularization (CNV) model in rats; assay: Evaluation test for inhibitory effect of choroidal neovascularization (laser induced CNV model in rats); assay type: in vivo; conditions: Brown Norway rats, 1% (w/v) suspension eye drops four times a day or 20 mg/mL subconjunctival injection (route not given), vs vehicle, mean of 7-8 eyes in 4 rats
Description: The choroidal neovascularization (CNV) model in rats is known as one of the popular methods for evaluating the CNV inhibitory effect of drugs. This method is reported in Graefe's Arch. Cli. Exp. Ophthalmol., 235, 313-319 (1997). According to this method, the CNV examinations were performed to evaluate the CNV inhibitory effect of test compounds by comparing the incidence rates of CNV in vehicle group (control group) with test compound-treated groups.
For eye drop administration, a 1% (w/v) test compound suspension was prepared by adding 0.5% polysorbate 80/saline to the test compound. For subconjunctival injection, a 20 mg/mL test compound suspension was prepared by adding 0.5% hydrogenated castor oil/saline to the test compound.
1) Brown Norway male rats (7-8 weeks, 140-240 g) were anesthetized with intramuscular injection (1 mL/kg) of the mixed solution (5% ketamine HCl: 2% xylazine HCl=7:1).
2) After mydriasis using tropicamide phenylephrine hydrochloride eye drops (trade name Mydrin P), laser photocoagulation of bruch's membrane in rats was performed with krypton laser photocoagulation machine. Laser irradiation was performed at 8-9 points per eye avoiding thick retinal blood vessels in ocular fundus and focusing on the depth of retina. The conditions were 100 μm spot size, 100 mW power, 0.1 second duration.
3) After laser photocoagulation, photographs of ocular fundus were taken and the laser photocoagulation (laser irradiation) points were confirmed.
1) In case of eye drops administration, a test compound suspension was administrated four times a day from laser irradiation day (the 1st day) to the 8th day. In case of subconjunctival injection, a 50 μL test compound suspension was injected into conjunctivae just after laser irradiation.
2) In vehicle group (control group), 0.5% polysorbate 80/saline or 0.5% hydrogenated castor oil/saline was used instead of a test compound suspension. And the test was performed according to the method 1).
1) 7 days after laser irradiation, 0.1 mL of 10% fluorescein was injected into rat tail vein and fluorescein angiography was performed.
2) When the fluorescent leakage was not detected in the fluorescent angiography, the spot was judged to be a negative spot. When the fluorescent leakage was detected, the spot was judged to be a positive spot. When the fluorescent leakage was detected as a little leakage, two spots were counted as one positive spot.
3) The neovascular incidence rate was calculated according to the equation 1. According to the equation 2, the ratio of neovascular incidence rate in test compound group to vehicle group was calculated. Neovascular incidence rate(%)=(Positive spots/all spots)×100 (Equation 1) Angiogenic inhibition ratio in test compound group(%)=(1−Ax/Ao)×100 (Equation 2)
Ao: Neovascular incidence rate in vehicle group (control group)
Ax: Neovascular incidence rate in test compound group

COc1cc(OC(=O)c2cccnc2)ccc1-c1ccc2c(c1COc1cc([N+](=O)[O-])ccc1C)C(C)=CC(C)(C)N2 [Compound 1-72, 6-[2-Methoxy-4-(pyridin-3-ylcarbonyloxy)phenyl]-5-(2-methyl-5-nitrophenoxymethyl)-2,2,4-trimethyl-1,2-dihydroquinoline] was tested, and the inhibition in vivo at 10000 µg/mL [1] was 21% and the “Angiogenic inhibition ratio (%)” value [2] was 28%.

For CCCS(=O)(=O)Oc1ccc(-c2ccc3c(c2CNc2ccccc2OC)C(C)=CC(C)(C)N3)c(OC)c1 [Compound 4-18, 5-(2-Methoxyphenylaminomethyl)-6-(2-methoxy-4-propylsulfonyloxyphenyl)-2,2,4-trimethyl-1,2-dihydroquinoline], the inhibition in vivo at 10000 µg/mL [1] was 21% and the “Angiogenic inhibition ratio (%)” value [2] was 35%.

COc1cc(OC(=O)c2ccsc2)ccc1-c1ccc2c(c1COc1cc(F)ccc1C)C(C)=CC(C)(C)N2 [Compound 1-12, 5-(5-Fluoro-2-methylphenoxymethyl)-6-[2-methoxy-4-(thiophen-3-ylcarbonyloxy)phenyl]-2,2,4-trimethyl-1,2-dihydroquinoline] was tested, and the inhibition in vivo at 10000 µg/mL [1] was 17% and the “Angiogenic inhibition ratio (%)” value [2] was 37%.

COc1cc(OC(=O)c2ccco2)ccc1-c1ccc2c(c1COc1cc(F)ccc1C)C(C)=CC(C)(C)N2 [Compound 1-13, 5-(5-Fluoro-2-methylphenoxymethyl)-6-[4-(furan-2-ylcarbonyloxy)-2-methoxyphenyl]-2,2,4-trimethyl-1,2-dihydroquinoline] was tested, and the inhibition in vivo at 10000 µg/mL [1] was 24% and the “Angiogenic inhibition ratio (%)” value [2] was 38%.
